These results are taken from patent US20250305953A1, “LIGHT-EMITTING RADICAL CATION PROBE IN SITU GENERATED BY ACID INDUCTION, AND PREPARATION THEREFOR AND APPLICATION THEREOF” (SOUTH CHINA UNIVERSITY OF TECHNOLOGY, priority 2022, published 2025).

Data set [1] can be described thus: H&E staining and hepatorenal index analysis. It is filed as in vivo, Balb/c nude mice. How it is done:
2 hours after gavage, blood (approximately 500 μL) was collected through the ocular fundus venous plexus and stored in an icebox 20 minutes before centrifugation at 3,500 r.p.m. to prevent clotting. Roche Cobas E602 electrochemical light-emitting immunoassay analyzer was used to test and analyze total protein (TP), albumin (ALB), alanine aminotransferase (ALT), aspartate aminotransferase (AST), creatinine (CREA), carbon dioxide (CO2), uric acid (UA), urea (UREA) in serum samples (200 μL).
All tissues were fixed with 4% PFA, dehydrated with an ethanol solution, embedded with paraffin, and cut into […] coronal and low-temperature sections for hematoxylin and eosin (H&E) staining. Paraffin was removed by xylene washing. Then, the sections were incubated with hematoxylin and eosin for 4 min and washed with distilled water. Stained sections were examined by using the Nikon ECLIPSE 80i microscope.

The nature of data set [2]: In vivo imaging with laparotomy. The arrangement: species or system Balb/c nude mice. To be noted: dissected after imaging. The source says: The mice were anesthetized beforehand, and the gastrointestinal tract was then exposed by a single incision in the abdomen of the mice.
The procedure of data set [3]:
30 μL of DMSO stock solution (200 mM) of the compound P6 (4-(piperidine-1-methylene)-2,5-dimethyl-3-hydroxymethylene-^1H-pyrrole) was added to 2970 μL of the acidic buffer solution (pH=2.0-3.0).
After being mixed well, tests of the time-dependent ultraviolet-visible absorption spectrum and fluorescence spectrum were performed (2 h).

The conditions of data set [4]: compared with P3^⋅+.
Procedure: Animal experiments: male eight-week-old Balb/c nude mice were purchased from Guangzhou Yancheng Biotechnology Co. Ltd. The mice were adaptively housed for one week and fasted for 24 hours before gavage.
Subsequently, the in vivo fluorescence imaging was performed at room temperature by using the small animal imaging instrument Bruker MI SE 721. The imaging was performed every 10 min until 60 min, every 30 min until 120 min, and then every 60 min until 180 min. Two imaging steps were performed sequentially: 590 nm/700 nm, with exposure time being 60 s, and white light exposure time being 0.175 s. […] In the same conditions, quantitative analysis of fluorescence imaging was performed by using the instrument Bruker MI SE 721. The quantitative analysis of fluorescence was performed on the gastric signals in the mice at all the time points above. The mean value of fluorescence at three sites in the gastric region at 0 min was taken as I0, and the mean value of fluorescence at three sites in the gastric region at other time points was taken as I. A semi-quantitative analysis of the change of the gastric signals in the mice was performed by means of the fluorescence ratio (I/I0). In addition, the mice were euthanized at different time points, and the gastrointestinal tracts of the mice were dissected out for white light photography.

Some results are limits rather than exact numbers.

Regarding `Cc1cc(CO)c(C)n1-c1ccccc1` [P3, 2,5-dimethyl-3-hydroxymethylene-1-phenyl-^1H-pyrrole], in data set [1] (2 hours after gavage of 1.5 mg in 70 μL water, compared with control group), the “H&E histology of major visceral organs (stomach, liver, spleen, kidney, lung, heart)” value is on record as “no obvious injury or inflammatory lesion”. The biocompatibility result in data set [1] (generated in situ in the stomach, conclusion) is given as “good biocompatibility”. In data set [2], the “fluorescence of visceral organs other than the gastrointestinal tract” value is given as “without any fluorescence signal”.
On to `Cc1[nH]c(C)c(CN2CCCCC2)c1CO` [P6, 4-(piperidine-1-methylene)-2,5-dimethyl-3-hydroxymethylene-^1H-pyrrole], for which, in data set [3] (acidic buffer solution pH=2.0-3.0, atmosphere of air), the “time for conversion into the radical cation” value was at most 30 min. Moreover, in data set [3] (compared with P3), the conversion efficiency result is “lower conversion efficiency” and the light emission result is “weaker light emission”. Also, the gastrointestinal imaging effect result in data set [4] was “not as good as that of P3^⋅+”.
